Test results reported in PubChem BioAssay AID256 (DTP/NCI, 2004).
Inconclusive results and toxic doses are left out. Rule for the calls: active = survival T/C of 150% or more; inactive = T/C below 125% in these data.

Tested on: CD2F1 mice, L1210 leukemia ip, survival T/C
Test: NCI In Vivo Anticancer Drug Screen. Data for tumor model L1210 Leukemia (intraperitoneal) in CD2F1 (CDF1) mice
Conditions: higher = longer survival
Method in brief: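 Implant tumor; dose compound or vehicle; measure endpoint in both groups; report treated divided by control.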

[1] = endpoint: mean survival time, dose: 100.0 mg/kg/injection, schedule: Q04DX003 (ip), vehicle: saline with Tween-80
[2] = endpoint: mean survival time, dose: 200.0 mg/kg/injection, schedule: Q04DX003 (ip), vehicle: saline with Tween-80
[3] = endpoint: mean survival time, dose: 400.0 mg/kg/injection, schedule: Q04DX003 (ip), vehicle: saline with Tween-80
[4] = endpoint: mean survival time, dose: 12.5 mg/kg/injection, schedule: Q04DX003 (ip), vehicle: saline with Tween-80
[5] = endpoint: mean survival time, dose: 25.0 mg/kg/injection, schedule: Q01DX009 (ip), vehicle: saline with Tween-80
[6] = endpoint: mean survival time, dose: 25.0 mg/kg/injection, schedule: Q04DX003 (ip), vehicle: saline with Tween-80
[7] = endpoint: mean survival time, dose: 50.0 mg/kg/injection, schedule: Q01DX009 (ip), vehicle: saline with Tween-80
[8] = endpoint: mean survival time, dose: 50.0 mg/kg/injection, schedule: Q04DX003 (ip), vehicle: saline with Tween-80
[9] = endpoint: mean survival time, dose: 100.0 mg/kg/injection, schedule: Q04DX003 (ip), vehicle: saline
[10] = endpoint: mean survival time, dose: 200.0 mg/kg/injection, schedule: Q04DX003 (ip), vehicle: saline
[11] = endpoint: mean survival time, dose: 400.0 mg/kg/injection, schedule: Q04DX003 (ip), vehicle: saline
[12] = endpoint: mean survival time, dose: 100.0 mg/kg/injection, schedule: Q01DX009 (ip), vehicle: saline with Tween-80
[13] = endpoint: mean survival time, dose: 50.0 mg/kg/injection, schedule: Q01DX001 (ip), vehicle: saline
[14] = endpoint: mean survival time, dose: 100.0 mg/kg/injection, schedule: Q01DX009 (ip), vehicle: other
[15] = endpoint: mean survival time, dose: 200.0 mg/kg/injection, schedule: Q01DX009 (ip), vehicle: other
[16] = endpoint: mean survival time, dose: 50.0 mg/kg/injection, schedule: Q01DX009 (ip), vehicle: other

Measured: T/C

C1CCC2C(C1)CC1CCCCC1C2C1C2CCCCC2CC2CCCCC21 (stereo not drawn)
inactive: [1] 97 % of control | [2] 100 % of control | [3] 96 % of control

CN(C)C(=O)OCC[N+](C)(C)CCCCCCCCCC[N+](C)(C)CCOC(=O)N(C)C
inactive: endpoint: mean survival time, dose: 1.25 mg/kg/injection, schedule: Q04DX003 (ip), vehicle: saline 103 % of control | endpoint: mean survival time, dose: 2.5 mg/kg/injection, schedule: Q04DX003 (ip), vehicle: saline 97 % of control

COc1cc(NC(=O)CCl)ccc(=O)c1
inactive: endpoint: mean survival time, dose: 12.5 mg/kg/injection, schedule: Q01DX009 (ip), vehicle: saline with Tween-80 106 % of control | [4] 99 % of control | [5] 104 % of control | [6] 91 % of control | [7] 90 % of control | [8] 94 % of control

O=C(O)c1cnc(Cl)c(Br)c1
inactive: endpoint: mean survival time, dose: 100.0 mg/kg/injection, schedule: Q01DX001 (ip), vehicle: saline with Tween-80 103 % of control | [1] 97 % of control | endpoint: mean survival time, dose: 200.0 mg/kg/injection, schedule: Q01DX001 (ip), vehicle: saline with Tween-80 93 % of control | [2] 93 % of control | endpoint: mean survival time, dose: 400.0 mg/kg/injection, schedule: Q01DX001 (ip), vehicle: saline with Tween-80 98 % of control | [3] 93 % of control

COc1cc(Cl)ccc1NC(=O)Nc1ccccc1C
inactive: endpoint: mean survival time, dose: 25.0 mg/kg/injection, schedule: Q04DX002 (ip), vehicle: saline with Tween-80 90 % of control | endpoint: mean survival time, dose: 50.0 mg/kg/injection, schedule: Q04DX002 (ip), vehicle: saline with Tween-80 94 % of control | endpoint: mean survival time, dose: 100.0 mg/kg/injection, schedule: Q04DX002 (ip), vehicle: saline with Tween-80 94 % of control | endpoint: mean survival time, dose: 200.0 mg/kg/injection, schedule: Q04DX002 (ip), vehicle: saline with Tween-80 90 % of control | endpoint: mean survival time, dose: 400.0 mg/kg/injection, schedule: Q04DX002 (ip), vehicle: saline with Tween-80 90 % of control

CC(=O)C(C)(O)C(C)(C)C (stereo not drawn)
inactive: [9] 95 % of control | [10] 93 % of control | [11] 98 % of control

COC(=O)CCNc1ccccc1
inactive: endpoint: mean survival time, dose: 100.0 mg/kg/injection, schedule: Q01DX001 (ip), vehicle: Klucel (hydroxypropylcellulose) (HPC) 101 % of control | [1] 100 % of control | endpoint: mean survival time, dose: 200.0 mg/kg/injection, schedule: Q01DX001 (ip), vehicle: Klucel (hydroxypropylcellulose) (HPC) 101 % of control | [2] 96 % of control | endpoint: mean survival time, dose: 400.0 mg/kg/injection, schedule: Q01DX001 (ip), vehicle: Klucel (hydroxypropylcellulose) (HPC) 96 % of control | [3] 96 % of control

COc1ccc(N=C2C=CC(=O)O2)cc1
inactive: [5] 95 % of control | [7] 100 % of control | [12] 97 % of control | [1] 101 % of control

CC1(C)CCC2(CC1)CC(=O)OC2=O
inactive: [12] 109 % of control | endpoint: mean survival time, dose: 200.0 mg/kg/injection, schedule: Q01DX009 (ip), vehicle: saline with Tween-80 105 % of control | endpoint: mean survival time, dose: 400.0 mg/kg/injection, schedule: Q01DX009 (ip), vehicle: saline with Tween-80 100 % of control

N#Cc1ncc(Cl)cc1[N+](=O)[O-]
inactive: [4] 101 % of control | [6] 101 % of control | [8] 101 % of control

CCC(=O)c1cc2c(cc1CC)C(C)(C)CCC2(C)C
inactive: [13] 93 % of control | endpoint: mean survival time, dose: 100.0 mg/kg/injection, schedule: Q01DX001 (ip), vehicle: saline 93 % of control | [9] 101 % of control | endpoint: mean survival time, dose: 200.0 mg/kg/injection, schedule: Q01DX001 (ip), vehicle: saline 93 % of control | [10] 97 % of control | endpoint: mean survival time, dose: 400.0 mg/kg/injection, schedule: Q01DX001 (ip), vehicle: saline 91 % of control | [11] 90 % of control

CC1(C)C/C(=C\c2ccccc2)C(=O)c2ccccc21
inactive: [14] 104 % of control | [15] 112 % of control | endpoint: mean survival time, dose: 400.0 mg/kg/injection, schedule: Q01DX009 (ip), vehicle: other 96 % of control

CC(=O)OCC1OC(n2cc(F)c(=O)[nH]c2=O)CC1OC(C)=O (stereo not drawn)
inactive: [16] 123 % of control | endpoint: mean survival time, dose: 100.0 mg/kg/injection, schedule: Q01DX001 (ip), vehicle: other 93 % of control | endpoint: mean survival time, dose: 200.0 mg/kg/injection, schedule: Q01DX001 (ip), vehicle: other 110 % of control | [15] 117 % of control | endpoint: mean survival time, dose: 400.0 mg/kg/injection, schedule: Q01DX001 (ip), vehicle: other 102 % of control | endpoint: mean survival time, dose: 800.0 mg/kg/injection, schedule: Q01DX001 (ip), vehicle: other 119 % of control

Cc1cn(C2CC(O)C(CO)O2)c(=O)nc1NCc1ccco1 (stereo not drawn)
inactive: endpoint: median survival time, dose: 12.5 mg/kg/injection, schedule: Q01DX005 (ip), vehicle: water 103 % of control | endpoint: median survival time, dose: 25.0 mg/kg/injection, schedule: Q01DX005 (ip), vehicle: water 103 % of control | endpoint: median survival time, dose: 50.0 mg/kg/injection, schedule: Q01DX005 (ip), vehicle: water 104 % of control | endpoint: median survival time, dose: 100.0 mg/kg/injection, schedule: Q01DX005 (ip), vehicle: water 105 % of control | endpoint: median survival time, dose: 200.0 mg/kg/injection, schedule: Q01DX005 (ip), vehicle: water 102 % of control

[O-][n+]1cccc2ccc3ccccc3c21
inactive: [16] 101 % of control | [14] 101 % of control

COc1ccc(OC)c(NC(=O)NNC(=O)c2ccc(Cl)cc2)c1
inactive: [12] 90 % of control

O=P(O)(O)OCC1OC(n2cnc3c(NCc4ccco4)ncnc32)C(O)C1O (stereo not drawn)
inactive: endpoint: mean survival time, dose: 12.5 mg/kg/injection, schedule: Q01DX005 (ip), vehicle: water 106 % of control | endpoint: mean survival time, dose: 25.0 mg/kg/injection, schedule: Q01DX005 (ip), vehicle: water 106 % of control | endpoint: mean survival time, dose: 50.0 mg/kg/injection, schedule: Q01DX005 (ip), vehicle: water 103 % of control | endpoint: mean survival time, dose: 100.0 mg/kg/injection, schedule: Q01DX005 (ip), vehicle: water 106 % of control

Cc1ncc(COP(=O)(O)O)c(C=NC(Cc2ccc(O)c(O)c2)C(=O)O)c1O.O.[Cu] (stereo not drawn)
inactive: endpoint: mean survival time, dose: 12.5 mg/kg/injection, schedule: Q01DX001 (ip), vehicle: saline 100 % of control | endpoint: mean survival time, dose: 25.0 mg/kg/injection, schedule: Q01DX001 (ip), vehicle: saline 93 % of control | [13] 86 % of control

COc1ccc(NC(=O)c2ccc(C(=O)Nc3ccc(OC)cc3)cc2)cc1
inactive: endpoint: mean survival time, dose: 100.0 mg/kg/injection, schedule: Q01DX009 (ip), vehicle: saline 96 % of control | endpoint: mean survival time, dose: 200.0 mg/kg/injection, schedule: Q01DX009 (ip), vehicle: saline 90 % of control | endpoint: mean survival time, dose: 400.0 mg/kg/injection, schedule: Q01DX009 (ip), vehicle: saline 98 % of control

O=C(O)c1ccccc1-c1ccccc1C(=O)Nc1ccc2c(c1)Cc1ccccc1-2
inactive: endpoint: mean survival time, dose: 62.5 mg/kg/injection, schedule: Q04DX003 (ip), vehicle: saline with Tween-80 101 % of control | endpoint: mean survival time, dose: 125.0 mg/kg/injection, schedule: Q04DX003 (ip), vehicle: saline with Tween-80 98 % of control | endpoint: mean survival time, dose: 250.0 mg/kg/injection, schedule: Q04DX003 (ip), vehicle: saline with Tween-80 98 % of control
